Measurements: publication PMC9268102, “Design, Synthesis and Biological Evaluation of 1,3,5-Triazine Derivatives Targeting hA1 and hA3 Adenosine Receptor” (Molecules, 2022)

Legend:
Type in all cases: cell-based
NCI-H1299 cells = test: Cell viability (MTS) assay in NCI-H1299 cells; details: Homo sapiens, 48 h
Protocol: (§1) To test the effect of the compounds in terms of cell growth regulation in lung cancer cell lines such as A549 and NCI-H1299 cells, these cells were treated in 96-well plates for 48 h with the compounds at concentrations ranging from 0 μM to 100 μM. […] Therefore, we decided to perform an additional experiment with 9c.
(§2) A549 and NCI-H1299 cells were seeded in 96-well plates at a density of 1 × 10^5 cells per well for 24 h before being exposed to compounds at various concentrations. After 48 h of compound treatment, the CellTiter 96 AQueous One Solution Cell Proliferation Assay Kit (Promega, Madison, WI, USA) was used to conduct a cell viability assay. The cells were incubated with solution reagents for 2 h at 37 °C before being measured for absorbance at 490 nm using a Synergy HTX Multi-Mode microplate reader (BioTek Instruments, Inc., Winooski, VT, USA).

A549 cells [1] = test: Cell viability (MTS) assay in A549 cells; details: Homo sapiens, 48 h
Protocol: as §1, §2

A549 cells [2] = test: Intracellular ROS by H2DCF-DA flow cytometry; details: 48 h, control 1.26%
Description: Although reactive oxygen species (ROS) play an important role in regulating normal cellular processes, abnormal ROS levels contribute to the development of a variety of human diseases, including cancer. Because of their accelerated metabolism, cancer cells have higher ROS levels than normal cells. Nevertheless, the high ROS content of cancer cells makes them more susceptible to oxidative stress-induced cell death, which can be used to target cancer cells selectively. Flow cytometry was used to determine whether 9c induces ROS generation in A549 cells by examining the results. The experiment was conducted with H2DCF-DA as a fluorescent probe. […] Next, we determined the effect of 9c in regulating mitochondrial ROS.
(§3) A549 cells were incubated with a fluorescent indicator, specifically 100 nM tetramethylrhodamine methyl ester perchlorate (TMRM, Thermo Fisher Scientific, Waltham, MA, USA), to determine the mitochondrial membrane potential. The A549 cells treated with the compound were harvested after 48 h, washed in PBS, and re-suspended in FACS buffer (PBS supplemented with 2 percent fetal bovine serum). […] Intracellular fluorescence measurements involved the use of a flow cytometer (BD FACSVerse, BD Biosciences, San Jose, CA, USA) and the FlowJo software (Version 10, TreeStar, Ashland, OR, USA).

A549 cells [3] = test: Mitochondrial membrane potential by TMRM flow cytometry; details: 48 h, control 93.8%
Protocol: ROS-induced oxidative stress can cause the rapid depolarization of the inner mitochondrial membrane potential (ΔΨm) and, as a result, impairment of oxidative phosphorylation. Using tetramethylrhodamine methyl ester (TMRM) measurements, we investigated how mitochondrial membrane potential was affected by 9c. A549 cells were exposed to 9c following incubation with TMRM. Afterward, flow cytometry was employed to calculate the intensity of TMRM binding in the healthy membrane.
as §3, with “serum). A flow cytometer (BD FACSVerse, BD Biosciences, San Jose, CA, USA) and the FlowJo software (FlowJo LLC, Ashland, OR, USA) were used to analyze the cells.” for “serum).”

## COc1cc(Nc2nc(N)nc(-c3ccc(O)cc3)n2)ccc1Cl [Compound 9c, 4-{4-amino-6-[(4-chloro-3-methoxyphenyl)amino]-1,3,5-triazin-2-yl}phenol]
NCI-H1299 cells
  viability at 25 µM: 68.8%
A549 cells [1]
  viability at 25 µM: 59.9%
A549 cells [2]; 20 μM
  ROS level (H2DCF-DA positive): 7.31%
A549 cells [2]; 40 μM
  ROS level (H2DCF-DA positive): 22.6%
A549 cells [3]; 20 μM
  TMRM-positive intensity, TMRM (+): 74.6%
A549 cells [3]; 40 μM
  TMRM-positive intensity, TMRM (+): 52.3%
